In brackets after ≈: the same amount, converted by molar mass. Where two headings read alike, the source gives them in different places.
How the values were obtained:
[1] = tested on: MRSA isolate Sa375 (VISA); assay: microbe, parasite or virus in culture; format: cell-based, Staphylococcus aureus; settings: for MIC: Staphylococcus aureus
[2] = tested on: VSSA MRSA isolates (n = 43); settings: VSSA isolates (n = 43), BMD, previously determined; cited from earlier work
[3] = tested on: hVISA MRSA isolates (n = 54); settings: hVISA isolates (n = 54), BMD, previously determined; cited from earlier work
[4] = tested on: VISA MRSA isolates (n = 6); settings: VISA isolates (n = 6), BMD, previously determined; cited from earlier work
[5] = tested on: vancomycin intermediate-resistant S. aureus (VISA); settings: MRSA isolate reported in Japan in 1997 (VISA); cited from earlier work
[6] = tested on: vancomycin-resistant S. aureus (VRSA) strain; settings: first VRSA strain, United States 2002; cited from earlier work
[7] = tested on: MRSA bacteraemia isolates; assay: BDM-I MIC by broth microdilution (BMD), collection of clinical MRSA isolates; format: cell-based, Staphylococcus aureus; settings: clinical MRSA isolates with varying vancomycin susceptibilities
Method: (§1) One-hundred and three MRSA bacteraemia isolates (from Liverpool Hospital, Sydney, Australia) were selected for this study. BDM-I MICs were determined by the broth microdilution method (BMD) as described by the CLSI (Clinical Laboratory Standards Institute, Methods for Dilution Antimicrobial Susceptibility Tests for Bacteria That Grow Aerobically: Ninth Edition: Approved Standard M07-A9, CLSI, Wayne, Pa., USA, 2012) using CAMHB (Oxoid-Thermo Fisher, Hampshire, UK). BDM-I concentrations ranged from 1 to 10 mg/L in 1 mg/L increments. All isolates had previously undergone vancomycin MIC testing and hVISA/VISA characterization (van Hal, Barbagiannakos et al., 2011; van Hal, Jones et al., 2011). Statistical analysis to determine correlation between variables was completed using the Spearman's test; with P<0.05 considered significant. Calculations were completed using SPSS statistical software (version 22.0; SPSS Inc, Chicago, Ill., USA).
(§2) The BDM-I MICs for a collection of clinical MRSA isolates, with varying vancomycin susceptibilities, were determined using the BMD method.

[8] = tested on: VSSA MRSA isolates (n = 43); assay: MIC by BMD, MRSA isolates of VSSA phenotype; format: cell-based; settings: Staphylococcus aureus, VSSA isolates (n = 43)
Method: as §1, §2

[9] = tested on: hVISA MRSA isolates (n = 54); assay: MIC by BMD, MRSA isolates of hVISA phenotype; format: cell-based; settings: Staphylococcus aureus, hVISA isolates (n = 54)
Method: as §1, §2

[10] = tested on: VISA MRSA isolates (n = 6); assay: MIC by BMD, MRSA isolates of VISA phenotype; format: cell-based; settings: Staphylococcus aureus, VISA isolates (n = 6)
Method: as §1, §2

[11] = tested on: vanB VRE clinical isolates; assay: BDM-I and vancomycin checkerboard assay (broth microdilution, FICI); format: cell-based, Enterococcus faecium; settings: vancomycin combined with BDM-I at fixed concentrations, vanB VRE isolate; FICI ≤0.5 indicates synergy
[12] = tested on: many Gram-negative and most Gram-positive bacterial species as well as many fungal species; settings: literature report; cited from earlier work
[13] = tested on: Mycobacterium tuberculosis; settings: literature report; cited from earlier work
[14] = tested on: Plasmodium falciparum; settings: literature report; cited from earlier work
[15] = tested on: mice; settings: mouse, in vivo; cited from earlier work
[16] = tested on: chickens; settings: in vivo; cited from earlier work
[17] = in vivo; cited from earlier work

SMILES: CN[C@H](CC(C)C)C(=O)N[C@H]1C(=O)N[C@@H](CC(N)=O)C(=O)N[C@H]2C(=O)N[C@H]3C(=O)N[C@H](C(=O)N[C@H](C(=O)O)c4cc(O)cc(O)c4-c4cc3ccc4O)[C@H](O)c3ccc(c(Cl)c3)Oc3cc2cc(c3O[C@@H]2O[C@H](CO)[C@@H](O)[C@H](O)[C@H]2O[C@H]2C[C@](C)(N)[C@H](O)[C@H](C)O2)Oc2ccc(cc2Cl)[C@H]1O [Vancomycin]
- MIC ([1]; read-out: Vancomycin MIC): 4 µg/mL (≈ 2.76 µM)
- Vancomycin MIC50 [2]: 0.58 µg/mL
- Vancomycin MIC (average) [2]: 1.16 µg/mL
- Vancomycin MIC50 [3]: 0.96 µg/mL
- Vancomycin MIC (average) [3]: 1.92 µg/mL
- Vancomycin MIC50 [4]: 1.1 µg/mL
- Vancomycin MIC (average) [4]: 2.2 µg/mL
- vancomycin MIC [5]: 3 to 8 µg/mL
- vancomycin MIC [6]: greater than 100 μg/mL

SMILES: C/C(=C\c1ccc2c(c1)OCO2)[N+](=O)[O-] [BDM-I, 3,4-methylenedioxy-β-methyl-β-nitrostyrene]
- BDM-I MIC (range over isolates) [7]: 2 to 5 µg/mL
- MIC50 ([8]; read-out: BDM-I MIC50): 1.71 µg/mL (≈ 8.25 µM)
- MIC ([8]; read-out: BDM-I MIC (average)): 3.42 µg/mL (≈ 16.5 µM)
- MIC50 ([9]; read-out: BDM-I MIC50): 1.64 µg/mL (≈ 7.92 µM)
- MIC ([9]; read-out: BDM-I MIC (average)): 3.28 µg/mL (≈ 15.8 µM)
- MIC50 ([10]; read-out: BDM-I MIC50): 1.25 µg/mL (≈ 6.03 µM)
- MIC ([10]; read-out: BDM-I MIC (average)): 2.5 µg/mL (≈ 12.1 µM)
- BDM-I MIC increase ([1]; Sa375, day 110 vs start, 21 out of 21 colonies): 3 µg/mL
- MIC ([1]; read-out: BDM-I MIC, Sa375 before passage in BDM-I): 2 µg/mL (≈ 9.65 µM)
- MIC ([1]; read-out: BDM-I MIC, Sa375 day 110 colonies (21 out of 21)): 5 µg/mL (≈ 24.1 µM)
- Interaction with vancomycin (checkerboard, FICI) [11]: synergistic activity
- Antimicrobial spectrum [12]: broadly microbicidal
- Activity against Mycobacterium tuberculosis [13]: active
- Activity against Plasmodium falciparum [14]: active
- Oral toxicity [15]: low oral toxicity
- Oral toxicity [16]: low oral toxicity
- Absorption from the intestinal tract [17]: poorly absorbed
